Results on twelve compounds are retold here after ChEMBL document CHEMBL3272010, “Antimycotic imidazoles. 3. Synthesis and antimycotic properties of 1-[2-(aryloxyalkyl)-2-phenylethyl]-1H-imidazoles” (1977).

Experiment [1] has as its system Candida albicans. The experiment is described as follows: Antifungal activity against Candida albicans assessed as lowest dose required to total inhibition of fungal growth. Format: functional.
Experiment [2] relates to Candida tropicalis. The experiment is described as follows: Antifungal activity against Candida tropicalis assessed as lowest dose required to total inhibition of fungal growth. Format: functional.
Experiment [3] concerns Staphylococcus haemolyticus. The experiment is described as follows: Antibaterial activity against Staphylococcus haemolyticus assessed as lowest dose required to total inhibition of bacterial growth. Format: functional.
Experiment [4] has as its system Candida albicans. The experiment is described as follows: Antifungal activity against Candida albicans infected in guinea pig at 10 mg/kg, po qd. The format is functional, organism-based. Also noted: dose 10 mg/kg.
For experiment [5], the system named is Phialophora verrucosa. The experiment is described as follows: Antifungal activity against Phialophora verrucosa assessed as lowest dose required to total inhibition of fungal growth. The format is functional.
The subject of experiment [6] is Sporothrix schenckii. As to the kind of experiment: Antifungal activity against Sporothrix schenckii assessed as lowest dose required to total inhibition of fungal growth. Format: functional.
The subject of experiment [7] is Saprolegnia. The experiment is described as follows: Antifungal activity against Saprolegnia species assessed as lowest dose required to total inhibition of fungal growth. Format: functional.
Experiment [8] has as its system Mucor. As to the kind of experiment: Antifungal activity against Mucor species assessed as lowest dose required to total inhibition of fungal growth. The format is functional.
Experiment [9] relates to Microsporum canis. The experiment is described as follows: Antifungal activity against Microsporum canis assessed as lowest dose required to total inhibition of fungal growth. Format: functional.
For experiment [10], the system named is Cryptococcus neoformans. As to the kind of experiment: Antifungal activity against Cryptococcus neoformans assessed as lowest dose required to total inhibition of fungal growth. Format: functional.
For experiment [11], the system named is Streptococcus pyogenes. As to the kind of experiment: Antibaterial activity against Streptococcus pyogenes assessed as lowest dose required to total inhibition of bacterial growth. The format is functional.
The test system of experiment [12] is Aspergillus fumigatus. As to the kind of experiment: Antifungal activity against Aspergillus fumigatus assessed as lowest dose required to total inhibition of fungal growth. Format: functional.
Experiment [13] relates to Trichophyton mentagrophytes. The experiment is described as follows: Antifungal activity against Trichophyton mentagrophytes assessed as lowest dose required to total inhibition of fungal growth. The format is functional.
In experiment [14] the test system is Trichophyton rubrum. As to the kind of experiment: Antifungal activity against Trichophyton rubrum assessed as lowest dose required to total inhibition of fungal growth. Format: functional.
Experiment [15] deals with Erysipelothrix rhusiopathiae. The experiment is described as follows: Antibaterial activity against Erysipelothrix insidiosa assessed as lowest dose required to total inhibition of bacterial growth. Format: functional.

Active and inactive are the calls of the source. No cut-off for these calls is given here.

With `Clc1ccc(C(CCOc2ccccc2Cl)Cn2ccnc2)c(Cl)c1.O=C(O)C(=O)O` (stereo not drawn), the GI in experiment [1] is more than 100 µg/mL; in experiment [2] it was more than 100 µg/mL; in experiment [3] it was 1 µg/mL; in experiment [5] it was 100 µg/mL; in experiment [6] it was 10 µg/mL; in [7], 100 µg/mL. The GI is more than 100 µg/mL in experiment [8]; 10 µg/mL in experiment [9]; less than 1 µg/mL in experiment [10]; less than 1 µg/mL in experiment [11]; more than 100 µg/mL in experiment [12]; less than 1 µg/mL in experiment [13]. Further, the GI in experiment [14] and in [15] was less than 1 µg/mL in each case. In experiment [4], the outcome was inactive.
Take `Clc1ccc(C(CCOc2ccccc2)Cn2ccnc2)c(Cl)c1.O=C(O)C(=O)O` (stereo not drawn): the GI in experiment [1] amounted to 10 µg/mL; in [2], 100 µg/mL; in experiment [3] it was 10 µg/mL; in experiment [5], 100 µg/mL; in [6], 10 µg/mL; in experiment [7], 100 µg/mL. In addition, the GI in experiment [8] was 100 µg/mL; in [9], 10 µg/mL; in experiment [10], less than 1 µg/mL; in experiment [11], 1 µg/mL; in experiment [12], 100 µg/mL; in [13], less than 1 µg/mL. The GI was less than 1 µg/mL in experiment [14] and 1 µg/mL in experiment [15]. The result in [4] was inactive.
With `Clc1ccc(OCCCC(Cn2ccnc2)c2ccc(Cl)cc2Cl)cc1.O=C(O)C(=O)O` (stereo not drawn), the GI in experiment [1] was more than 100 µg/mL; in experiment [2], more than 100 µg/mL; in [3], 1 µg/mL; in experiment [5] it was 100 µg/mL; in [6], less than 1 µg/mL; in experiment [7] it was 10 µg/mL. The GI is more than 100 µg/mL in experiment [8]; 10 µg/mL in experiment [9]; 10 µg/mL in experiment [10]; less than 1 µg/mL in experiment [11]; 100 µg/mL in experiment [12]; less than 1 µg/mL in experiment [13]. Moreover, the GI in [14] and in experiment [15] was less than 1 µg/mL throughout. Besides, in [4], the outcome was inactive.
As for `Fc1ccc(OCCC(Cn2ccnc2)c2ccc(Cl)cc2Cl)cc1.O=C(O)C(=O)O` (stereo not drawn), the GI in [1] was 10 µg/mL; in [2], more than 100 µg/mL; in [3] it was 10 µg/mL; in [5] it was 100 µg/mL; in [6], 10 µg/mL; in [7], 10 µg/mL. Moreover, the GI was 100 µg/mL in experiment [8]; 10 µg/mL in experiment [9]; less than 1 µg/mL in experiment [10]; 1 µg/mL in [11]; 100 µg/mL in experiment [12]; less than 1 µg/mL in experiment [13]. Besides, the GI in [14] and in [15] was less than 1 µg/mL each time. Moreover, the result in experiment [4] was Active.
Regarding `Clc1ccc(OCC(Cn2ccnc2)c2ccc(Br)cc2)cc1.O=[N+]([O-])O` (stereo not drawn), the GI is 100 µg/mL in experiment [1]; more than 100 µg/mL in experiment [2]; 10 µg/mL in [3]; 100 µg/mL in experiment [5]; 10 µg/mL in experiment [6]; more than 100 µg/mL in experiment [7]. Besides, the GI in experiment [8] is more than 100 µg/mL; in experiment [9], 10 µg/mL; in [10] it was 10 µg/mL; in experiment [11] it was less than 1 µg/mL; in experiment [12], 100 µg/mL; in experiment [13], less than 1 µg/mL. Besides, the GI in experiment [14] and in experiment [15] was less than 1 µg/mL each time.
With `Clc1ccc(OCCC(Cn2ccnc2)c2ccc(Cl)cc2Cl)cc1.O=[N+]([O-])O` (stereo not drawn), the GI was 10 µg/mL in experiment [1]; more than 100 µg/mL in experiment [2]; 1 µg/mL in experiment [3]; 100 µg/mL in experiment [5]; 10 µg/mL in experiment [6]; 10 µg/mL in [7]. Besides, the GI in [8] is 10 µg/mL; in experiment [9], 10 µg/mL; in [10], less than 1 µg/mL; in experiment [11], less than 1 µg/mL; in experiment [12] it was 100 µg/mL; in experiment [13] it was less than 1 µg/mL. The GI in experiment [14] and in experiment [15] was less than 1 µg/mL in each case.
In the case of `Clc1ccc(OCCC(Cn2ccnc2)c2ccc(Cl)cc2Cl)c(Cl)c1.O=C(O)C(=O)O` (stereo not drawn), the GI in experiment [1] is 100 µg/mL; in experiment [2] it was more than 100 µg/mL; in [3], 1 µg/mL; in experiment [5], 100 µg/mL; in experiment [6], 100 µg/mL; in experiment [7], 100 µg/mL. Moreover, the GI was 100 µg/mL in experiment [8]; 10 µg/mL in [9]; less than 1 µg/mL in experiment [10]; less than 1 µg/mL in [11]; 100 µg/mL in experiment [12]; less than 1 µg/mL in experiment [13]. Moreover, the GI in experiment [14] and in experiment [15] was less than 1 µg/mL each time. For the same compound, in experiment [4], the result was Active.
Turning to `Clc1ccc(OCC(Cn2ccnc2)c2ccc(Cl)cc2)cc1.O=[N+]([O-])O` (stereo not drawn), the GI is more than 100 µg/mL in [1]; more than 100 µg/mL in [2]; 10 µg/mL in [3]; 100 µg/mL in [5]; 10 µg/mL in experiment [6]; 100 µg/mL in experiment [7]. Also, the GI in experiment [8] is 10 µg/mL; in experiment [9], less than 1 µg/mL; in [10], less than 1 µg/mL; in experiment [11] it was less than 1 µg/mL; in experiment [12], 100 µg/mL; in experiment [13] it was less than 1 µg/mL. Also, the GI was less than 1 µg/mL in experiment [14] and 1 µg/mL in experiment [15].
As for `Clc1ccc(C(COc2ccccc2Cl)Cn2ccnc2)cc1.O=[N+]([O-])O` (stereo not drawn), the GI in experiment [1] is 100 µg/mL; in [2], more than 100 µg/mL; in experiment [3], 10 µg/mL; in experiment [5] it was more than 100 µg/mL; in [6] it was 10 µg/mL; in experiment [7], more than 100 µg/mL. In addition, the GI was 100 µg/mL in experiment [8]; 100 µg/mL in [9]; less than 1 µg/mL in experiment [10]; 1 µg/mL in [11]; more than 100 µg/mL in [12]; less than 1 µg/mL in [13]. For the same compound, the GI is 10 µg/mL in experiment [14] and 1 µg/mL in experiment [15].
In the case of `Clc1ccc(C(CCOc2ccc(Br)cc2)Cn2ccnc2)c(Cl)c1.O=[N+]([O-])O` (stereo not drawn), the GI in experiment [1] was less than 10 µg/mL; in experiment [2], 100 µg/mL; in [3] it was 100 µg/mL; in experiment [5], less than 10 µg/mL; in [6], less than 10 µg/mL; in [7] it was less than 10 µg/mL. The GI is 100 µg/mL in experiment [8]; less than 10 µg/mL in experiment [9]; less than 10 µg/mL in [10]; less than 10 µg/mL in [11]; 100 µg/mL in [12]; less than 10 µg/mL in experiment [13]. Moreover, the GI in experiment [14] and in experiment [15] was less than 10 µg/mL each time.
With `Clc1ccc(C(COc2ccccc2Cl)Cn2ccnc2)c(Cl)c1.O=[N+]([O-])O` (stereo not drawn), the GI in [1] was 100 µg/mL; in experiment [2] it was more than 100 µg/mL; in experiment [3], 1 µg/mL; in [5], 100 µg/mL; in experiment [6], 10 µg/mL; in experiment [7], 100 µg/mL. Also, the GI was more than 100 µg/mL in experiment [8]; 10 µg/mL in experiment [9]; less than 1 µg/mL in [10]; less than 1 µg/mL in experiment [11]; 100 µg/mL in [12]; less than 1 µg/mL in experiment [13]. Further, the GI in experiment [14] and in experiment [15] was less than 1 µg/mL throughout.
`Clc1ccc(OCC(Cn2ccnc2)c2ccc(Cl)cc2Cl)c(Cl)c1.O=[N+]([O-])O` (stereo not drawn): the GI in experiment [1] was more than 100 µg/mL; in experiment [2], more than 100 µg/mL; in experiment [3] it was 1 µg/mL; in experiment [5] it was 100 µg/mL; in experiment [6], less than 1 µg/mL; in experiment [7], more than 100 µg/mL. Besides, the GI in experiment [8] was more than 100 µg/mL; in experiment [9], less than 1 µg/mL; in experiment [10], less than 1 µg/mL; in experiment [11], less than 1 µg/mL; in experiment [12] it was more than 100 µg/mL; in [13], less than 1 µg/mL. The GI in experiment [14] and in [15] was less than 1 µg/mL each time.
